# Measured values from PubChem BioAssay AID1963832 (Molecular Pharmacology Branch, DTP, NCI, 2024).
# Tested on: 885724-159-R-J1-PDC complex spheroid viability
# Assay: Anticancer human tumor 885724-159-R-J1-PDC patient-derived pancreatic adenocarcinoma cell line growth inhibition [POLQ]
# Conditions: for IC50: curve of first compound; for viability, T/C: stronger effect = lower value
# How it was run: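 PDC + HUVEC + MSC complex spheroids; POLQ inhibitors ± partner drugs; top conc. at/near clinical Cmax, else 10 microM (SN-38 1 microM), half-log dilutions; 37 degrees C, 5% CO2.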
# [1] = second compound 0.0316 µM, first compound 0.0316 µM
# [2] = second compound 0.0316 µM, first compound 0.1 µM
# [3] = second compound 0.0316 µM, first compound 0.316 µM
# [4] = second compound 0.0316 µM, first compound 1 µM
# [5] = second compound 0.0316 µM, first compound 3.16 µM
# [6] = second compound 0.0316 µM, first compound 10 µM
# [7] = second compound 0.1 µM, first compound 0.0316 µM
# [8] = second compound 0.1 µM, first compound 0.1 µM
# [9] = second compound 0.1 µM, first compound 0.316 µM
# [10] = second compound 0.1 µM, first compound 1 µM
# [11] = second compound 0.1 µM, first compound 3.16 µM
# [12] = second compound 0.1 µM, first compound 10 µM
# [13] = second compound 0.316 µM, first compound 0.0316 µM
# [14] = second compound 0.316 µM, first compound 0.1 µM
# [15] = second compound 0.316 µM, first compound 0.316 µM
# [16] = second compound 0.316 µM, first compound 1 µM
# [17] = second compound 0.316 µM, first compound 3.16 µM
# [18] = second compound 0.316 µM, first compound 10 µM
# [19] = second compound 1 µM, first compound 0.0316 µM
# [20] = second compound 1 µM, first compound 0.1 µM
# [21] = second compound 1 µM, first compound 0.316 µM
# [22] = second compound 1 µM, first compound 1 µM
# [23] = second compound 1 µM, first compound 3.16 µM
# [24] = second compound 1 µM, first compound 10 µM
# [25] = second compound 3.16 µM, first compound 0.0316 µM
# [26] = second compound 3.16 µM, first compound 0.1 µM
# [27] = second compound 3.16 µM, first compound 0.316 µM
# [28] = second compound 3.16 µM, first compound 1 µM
# [29] = second compound 3.16 µM, first compound 3.16 µM
# [30] = second compound 3.16 µM, first compound 10 µM
# [31] = second compound 10 µM, first compound 0.0316 µM
# [32] = second compound 10 µM, first compound 0.1 µM
# [33] = second compound 10 µM, first compound 0.316 µM
# [34] = second compound 10 µM, first compound 1 µM
# [35] = second compound 10 µM, first compound 3.16 µM
# [36] = second compound 10 µM, first compound 10 µM
# 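Further: spheroids exposed to compounds for 7 days.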
smiles,measurement,setting,value
C=CC(=O)N1CCN(c2nc(=O)n(-c3c(C)ccnc3C(C)C)c3nc(-c4c(O)cccc4F)c(F)cc23)C(C)C1 (stereo not given) + COC1C(OC(N)=O)C(O)C(Oc2ccc3c(O)c(NC(=O)c4ccc(O)c(CC=C(C)C)c4)c(=O)oc3c2C)OC1(C)C,IC50,second compound 0.0316 µM,> 10 µM
same,IC50,second compound 0.1 µM,> 10 µM
same,IC50,second compound 0.316 µM,> 10 µM
same,IC50,second compound 1 µM,> 10 µM
same,IC50,second compound 3.16 µM,> 10 µM
same,IC50,second compound 10 µM,> 10 µM
same,"viability, T/C",[1],104%
same,"viability, T/C",[2],97.9%
same,"viability, T/C",[3],110%
same,"viability, T/C",[4],113%
same,"viability, T/C",[5],114%
same,"viability, T/C",[6],91.7%
same,"viability, T/C",[7],109%
same,"viability, T/C",[8],91.9%
same,"viability, T/C",[9],106%
same,"viability, T/C",[10],108%
same,"viability, T/C",[11],115%
same,"viability, T/C",[12],105%
same,"viability, T/C",[13],107%
same,"viability, T/C",[14],115%
same,"viability, T/C",[15],104%
same,"viability, T/C",[16],112%
same,"viability, T/C",[17],123%
same,"viability, T/C",[18],95.1%
same,"viability, T/C",[19],118%
same,"viability, T/C",[20],104%
same,"viability, T/C",[21],112%
same,"viability, T/C",[22],106%
same,"viability, T/C",[23],114%
same,"viability, T/C",[24],83.2%
same,"viability, T/C",[25],102%
same,"viability, T/C",[26],108%
same,"viability, T/C",[27],104%
same,"viability, T/C",[28],116%
same,"viability, T/C",[29],124%
same,"viability, T/C",[30],104%
same,"viability, T/C",[31],96%
same,"viability, T/C",[32],93.7%
same,"viability, T/C",[33],106%
same,"viability, T/C",[34],110%
same,"viability, T/C",[35],111%
same,"viability, T/C",[36],91%
CC(C)n1c(=O)n(C)c2cnc3cc(F)c(-c4ccc(OCCCN5CCCCC5)nc4)cc3c21 + COC1C(OC(N)=O)C(O)C(Oc2ccc3c(O)c(NC(=O)c4ccc(O)c(CC=C(C)C)c4)c(=O)oc3c2C)OC1(C)C,IC50,second compound 0.0316 µM,> 10 µM
same,IC50,second compound 0.1 µM,> 10 µM
same,IC50,second compound 0.316 µM,> 10 µM
same,IC50,second compound 1 µM,> 10 µM
same,IC50,second compound 3.16 µM,> 10 µM
same,IC50,second compound 10 µM,> 10 µM
same,"viability, T/C",[1],89.6%
same,"viability, T/C",[2],89.6%
same,"viability, T/C",[3],97.5%
same,"viability, T/C",[4],88.9%
same,"viability, T/C",[5],88.3%
same,"viability, T/C",[6],84.4%
same,"viability, T/C",[7],96.5%
same,"viability, T/C",[8],99.4%
same,"viability, T/C",[9],100%
same,"viability, T/C",[10],100%
same,"viability, T/C",[11],91.1%
same,"viability, T/C",[12],105%
same,"viability, T/C",[13],99.4%
same,"viability, T/C",[14],86.6%
same,"viability, T/C",[15],93.5%
same,"viability, T/C",[16],93.7%
same,"viability, T/C",[17],91.8%
same,"viability, T/C",[18],86.1%
same,"viability, T/C",[19],104%
same,"viability, T/C",[20],96.5%
same,"viability, T/C",[21],104%
same,"viability, T/C",[22],90%
same,"viability, T/C",[23],97%
same,"viability, T/C",[24],77.8%
same,"viability, T/C",[25],99.5%
same,"viability, T/C",[26],92.5%
same,"viability, T/C",[27],94.3%
same,"viability, T/C",[28],98%
same,"viability, T/C",[29],98.7%
same,"viability, T/C",[30],93.2%
same,"viability, T/C",[31],100%
same,"viability, T/C",[32],94.9%
same,"viability, T/C",[33],114%
same,"viability, T/C",[34],91.9%
same,"viability, T/C",[35],88.8%
same,"viability, T/C",[36],93.2%
CC1COCCN1c1cc(-c2ccnn2C)c2ccnc(-c3ccn[nH]3)c2n1 (stereo not given) + COC1C(OC(N)=O)C(O)C(Oc2ccc3c(O)c(NC(=O)c4ccc(O)c(CC=C(C)C)c4)c(=O)oc3c2C)OC1(C)C,IC50,second compound 0.0316 µM,0.229 µM
same,IC50,second compound 0.1 µM,0.211 µM
same,IC50,second compound 0.316 µM,0.169 µM
same,IC50,second compound 1 µM,0.188 µM
same,IC50,second compound 3.16 µM,0.189 µM
same,IC50,second compound 10 µM,0.247 µM
same,"viability, T/C",[1],78.3%
same,"viability, T/C",[2],63.8%
same,"viability, T/C",[3],44.3%
same,"viability, T/C",[4],42.1%
same,"viability, T/C",[5],39%
same,"viability, T/C",[6],39.3%
same,"viability, T/C",[7],76.5%
same,"viability, T/C",[8],64.3%
same,"viability, T/C",[9],41.6%
same,"viability, T/C",[10],41.5%
same,"viability, T/C",[11],35.2%
same,"viability, T/C",[12],35.6%
same,"viability, T/C",[13],81.1%
same,"viability, T/C",[14],53.8%
same,"viability, T/C",[15],44.3%
same,"viability, T/C",[16],43.5%
same,"viability, T/C",[17],43.3%
same,"viability, T/C",[18],36.2%
same,"viability, T/C",[19],84.1%
same,"viability, T/C",[20],55.8%
same,"viability, T/C",[21],43.6%
same,"viability, T/C",[22],43.7%
same,"viability, T/C",[23],41%
same,"viability, T/C",[24],33.5%
same,"viability, T/C",[25],76.4%
same,"viability, T/C",[26],55.9%
same,"viability, T/C",[27],45.5%
same,"viability, T/C",[28],37.8%
same,"viability, T/C",[29],37.8%
same,"viability, T/C",[30],33.8%
same,"viability, T/C",[31],77.1%
same,"viability, T/C",[32],57.6%
same,"viability, T/C",[33],48.2%
same,"viability, T/C",[34],41.1%
same,"viability, T/C",[35],38.9%
same,"viability, T/C",[36],34.4%
CC1COCCN1c1cc(C2(S(C)(=N)=O)CC2)nc(-c2ccnc3[nH]ccc23)n1 (stereo not given) + COC1C(OC(N)=O)C(O)C(Oc2ccc3c(O)c(NC(=O)c4ccc(O)c(CC=C(C)C)c4)c(=O)oc3c2C)OC1(C)C,IC50,second compound 0.0316 µM,6.58 µM
same,IC50,second compound 0.1 µM,7.53 µM
same,IC50,second compound 0.316 µM,4.74 µM
same,IC50,second compound 1 µM,3.83 µM
same,IC50,second compound 3.16 µM,5.46 µM
same,IC50,second compound 10 µM,5.74 µM
same,"viability, T/C",[1],95.9%
same,"viability, T/C",[2],96.8%
same,"viability, T/C",[3],93%
same,"viability, T/C",[4],67.8%
same,"viability, T/C",[5],60.3%
same,"viability, T/C",[6],44.6%
same,"viability, T/C",[7],102%
same,"viability, T/C",[8],89.7%
same,"viability, T/C",[9],95.4%
same,"viability, T/C",[10],73.6%
same,"viability, T/C",[11],59.1%
same,"viability, T/C",[12],47%
same,"viability, T/C",[13],87.5%
same,"viability, T/C",[14],98%
same,"viability, T/C",[15],95.9%
same,"viability, T/C",[16],68.7%
same,"viability, T/C",[17],56.5%
same,"viability, T/C",[18],43.9%
same,"viability, T/C",[19],101%
same,"viability, T/C",[20],102%
same,"viability, T/C",[21],89%
same,"viability, T/C",[22],72%
same,"viability, T/C",[23],49.1%
same,"viability, T/C",[24],45.5%
same,"viability, T/C",[25],102%
same,"viability, T/C",[26],85.6%
same,"viability, T/C",[27],91.3%
same,"viability, T/C",[28],72.6%
same,"viability, T/C",[29],54.8%
same,"viability, T/C",[30],43.9%
same,"viability, T/C",[31],111%
same,"viability, T/C",[32],92.2%
same,"viability, T/C",[33],94.1%
same,"viability, T/C",[34],72.7%
same,"viability, T/C",[35],51.7%
same,"viability, T/C",[36],47%
COc1ccc([C@@H](O)c2cc(-c3ncnc4cc(N5CCOCC5)ccc34)c(F)cc2Cl)nn1 + COC1C(OC(N)=O)C(O)C(Oc2ccc3c(O)c(NC(=O)c4ccc(O)c(CC=C(C)C)c4)c(=O)oc3c2C)OC1(C)C,IC50,second compound 0.0316 µM,3.45 µM
same,IC50,second compound 0.1 µM,4.09 µM
same,IC50,second compound 0.316 µM,4.05 µM
same,IC50,second compound 1 µM,4.77 µM
same,IC50,second compound 3.16 µM,3.15 µM
same,IC50,second compound 10 µM,3.75 µM
same,"viability, T/C",[1],95.4%
same,"viability, T/C",[2],85.4%
same,"viability, T/C",[3],76.3%
same,"viability, T/C",[4],65.5%
same,"viability, T/C",[5],53.4%
same,"viability, T/C",[6],33.4%
same,"viability, T/C",[7],104%
same,"viability, T/C",[8],104%
same,"viability, T/C",[9],81.9%
same,"viability, T/C",[10],71.2%
same,"viability, T/C",[11],56.7%
same,"viability, T/C",[12],33.8%
same,"viability, T/C",[13],100%
same,"viability, T/C",[14],93.3%
same,"viability, T/C",[15],86.6%
same,"viability, T/C",[16],73.7%
same,"viability, T/C",[17],54.2%
same,"viability, T/C",[18],32.8%
same,"viability, T/C",[19],94.2%
same,"viability, T/C",[20],81.4%
same,"viability, T/C",[21],90%
same,"viability, T/C",[22],66.8%
same,"viability, T/C",[23],61.9%
same,"viability, T/C",[24],34.3%
same,"viability, T/C",[25],89.9%
same,"viability, T/C",[26],81.3%
same,"viability, T/C",[27],97.2%
same,"viability, T/C",[28],68.4%
same,"viability, T/C",[29],52.5%
same,"viability, T/C",[30],31.8%
same,"viability, T/C",[31],108%
same,"viability, T/C",[32],86.9%
same,"viability, T/C",[33],87.5%
same,"viability, T/C",[34],69.1%
same,"viability, T/C",[35],55.5%
same,"viability, T/C",[36],31.5%
